Among the data in ChEMBL document CHEMBL5385955, “Minor Hydroxylated Triterpenoids Produced in Engineered Yeast by the Enzymes OSC and CYP716s from the Plant Enkianthus chinensis and Their Anti-Inflammatory and Hepatoprotective Activities” (2024) are viability and Activity values, retold here.

Structures are written as SMILES. Calls of active or inactive are those of the source. No cut-off for these calls is given here.

For one test, the system named is HepG2. Briefly: Hepatoprotective activity against acetaminophen-induced cell damage in human HepG2 cells assessed as increase in cell survival at 10 uM incubated for 24 hrs by CCK-8 assay relative to control. In kind it is functional. The settings on record: read-out: Survival. (In general: Tetrazolium dyes change colour on reduction, which living cells bring about.)

The subject of test [1] is RAW264.7. Description: Antiinflammatory activity in LPS-induced mouse RAW264.7 cells assessed as reduction in IL-1beta mRNA expression incubated for 24 hrs by qPCR analysis. In kind it is functional, cell-based. Particulars: dose 10-40 µM. On the technique in general: Real-time PCR tracks product formation cycle by cycle.
For test [2], the system named is RAW264.7. Briefly: Antiinflammatory activity in LPS-induced mouse RAW264.7 cells assessed as reduction in IL-1beta production at 10 to 40 uM incubated for 24 hrs by ELISA. In kind it is functional, cell-based. Particulars: dose 10-40 µM. Background: ELISA stands for enzyme-linked immunosorbent assay.
Test [3] relates to RAW264.7. Briefly: Antiinflammatory activity in LPS-induced mouse RAW264.7 cells assessed as reduction in IL-6 mRNA expression incubated for 24 hrs by qPCR analysis. Type of test: functional, cell-based. The settings on record: dose 10-40 µM.
The test system of test [4] is RAW264.7. Description: Antiinflammatory activity in LPS-induced mouse RAW264.7 cells assessed as reduction in IL-6 production at 10 to 40 uM incubated for 24 hrs by ELISA. Type of test: functional, cell-based. The settings on record: dose 10-40 µM.
Test [5] has as its system RAW264.7. Briefly: Antiinflammatory activity in LPS-induced mouse RAW264.7 cells assessed as inhibition of NO production at 10 to 40 uM incubated for 24 hrs by Griess reagent based assay. In kind it is functional, cell-based. The settings on record: dose 10-40 µM.

As for `CC1(C)CC[C@]2(CO)CC[C@]3(C)C(=CC[C@@H]4[C@@]5(C)CC[C@H](O)C(C)(C)[C@@H]5CC[C@]43C)[C@@H]2C1` [ERYTHRODIOL], the viability at 10 µM in the test with HepG2 was determined as 61%. Further, the Activity entry in the test on RAW264.7 [1] and in the test with RAW264.7 [3] was “Dose-Dependent Effect” each time. Further, the outcome in the test on RAW264.7 [2], with RAW264.7 [4] and in the test on RAW264.7 [5] was Active.

Consider `C[C@H]1[C@H](C)CC[C@]2(C)CC[C@]3(C)C(=CC[C@@H]4[C@@]5(C)CC[C@H](O)C(C)(C)[C@@H]5CC[C@]43C)[C@H]12`, for which, in the test with HepG2, the viability at 10 µM came to 61%.

For `COC(=O)c1cc(OC)c2c(c1-c1c(CO)cc(OC)c3c1OCO3)OCO2` [BICYCLOL], the viability at 10 µM in the test with HepG2 came out at 60%.

Regarding `C[C@H]1[C@H](C)CC[C@]2(CO)CC[C@]3(C)C(=CC[C@@H]4[C@@]5(C)CC[C@H](O)C(C)(C)[C@@H]5CC[C@]43C)[C@H]12` [UVAOL], in the test on HepG2, the viability at 10 µM was determined as 61%.

Take `CC1(C)CC[C@]2(C)CC[C@]3(C)C(=CC[C@@H]4[C@@]5(C)CC[C@H](O)C(C)(C)[C@@H]5CC[C@]43C)[C@@H]2C1` [beta-AMYRIN]: the viability at 10 µM with HepG2 was found to be 61%.
